Results from patent US11491117B2, “Compounds for the prevention and treatment of glucose intolerance related conditions and obesity” (SORBONNE UNIVERSITÉ, priority 2017, dated 2022).

What was measured:
[1] = tested on: C57BL/6J mice fed CHD or HFD; assay: Histology and immunohistochemistry of liver and pancreas of chronically treated mice; type: in vivo, mouse; details: for islet size (immunohistochemistry) / insulin positive area: mean±SEM
Procedure: Tissues were drop-fixed in 4% paraformaldehyde (Sigma-Aldrich, Saint Quentin Fallavier, France) immediately after collection and put through an automated carousel processor for dehydration, clearing, and paraffin embedding (Leica, Nanterre, France). Sections were prepared for liver (6 μm), pancreas (6 μm) and adipose tissue ([…]) and mounted on slides (DPX polymerizing mountant, Sigma-Aldrich, Saint Quentin Fallavier, France). Hematoxylin and Eosin (H&E) was used to evaluate tissue morphology. Epitope-specific antibodies were used for immunohistochemistry detection of insulin on pancreas sections (Dako, Saint Aubin, France).
For Oil redO (ORO), livers were snap frozen in OCT (VWR, Fontenay-sous-Bois, France) and cut into 7-μm sections using a cryostat. Sections were rehydrated in PBS (Sigma-Aldrich, St Quentin, France) and incubated with an ORO staining solution (Sigma Aldrich, St Quentin, France). Slides were washed in deionized water and mounted with Vectashield mounting medium (Laboratoires Eurobio Abcys, LesUlis, France).
For immunohistochemistry analysis, pancreas sections were quenched with 3% H2O2, washed with TBS+0.1% (v/v) Tween-20 (or 0.05% v/v Triton X-100 for nuclear epitopes), blocked with TBS+3% (w/v) BSA and incubated with diluted primary antibodies and then with HRP-conjugated secondary antibody (Bio-Rad, Marnes-la-Coquette, France). Chromogenic detection was carried out with the DAB chromogen kit (Dako, Saint Aubin, France). Nuclei were counterstained with hematoxylin. Quantitative expression of all immunostainings was performed using positive pixels algorithm (Indica Labs, Corrales, N. Mex.). For double immunostaining and immunofluorescence analyses, pancreas sections were stained for insulin as described above and co-stained with i) primary Anti-Ki67 antibody (ab15580, Abcam, Paris, France) and secondary Donkey Anti-Goat IgG H&L conjugated to Alexa Fluor® 568 (ab175704, Abcam, Paris, France) ii) primary Mouse/Rat CD31/PECAM-1 Antibody (AF3628, Minneapolis, USA) and secondary Goat anti-Rabbit IgG H&L conjugated to Alexa Fluor 488 (A-11034, ThermoFisher, Villebon, France). Results are expressed as percentage of positive pixels, within islets where indicated. The quantification method is an automated observer-independent process based on section scanning and application of publicly available algorithms. Each biological replicate represents one slide per animal mounted with at least 3 tissue sections, representing 3 technical replicates, the mean and variance of which is presented as the result per biological replicate. All images were acquired on an Axiovert 200M microscope (Zeiss, Marly-le-Roi, France).

[2] = tested on: adipose tissue gene expression; assay: Quantitative RT-PCR in retroperitoneal fat pads of chronically treated mice; type: in vivo, mouse
Procedure: Transcript abundance of key genes regulating adipose tissue biology was tested by quantitative RT-PCR in retroperitoneal fat pads of mice fed control chow diet (CHD) or high fat diet (HFD). Data were analyzed using the unpaired Mann-Whitney test. […] RNA was extracted from pancreas, adipose tissue and liver using the RNeasy RNA Mini Kit (Qiagen, Courtaboeuf, France). Reverse transcription was performed from a 20 μL reaction mixture with 500 ng RNA using M-MLV reverse transcriptase kit (ThermoFisher, Villebon, France). Quantitative RT-PCR was performed using sequence specific primers and the MESA green kit for SYBR green assays (Eurogentec, Angers, France). We used 18S and/or cyclophilin house keeping genes to normalize relative quantification of mRNA levels using the Livak and […] methods ([…], 2001).

pancreas gene expression = assay: Quantitative RT-PCR and NAD/NADH in total pancreas of chronically treated mice; type: in vivo, mouse
Procedure: Blood glucose was measured using an Accu-Check® Performa (Roche Diagnostics, Meylan, France) and plasma insulin was determined using Insulin ELISA kits (Mercodia, Uppsala, Sweden). For determination of liver triglycerides, liver samples (100 mg) were homogenized and incubated in NonidetP-40 (5%) and supernatants containing triglycerides were collected. Triglycerides concentration was quantified in the supernatant fraction using a colorimetric assay (ab65336, Abcam, Paris, France) by measuring OD at 570 nm. The ratio NAD/NADH was determined using a quantification kit (MAK037; […] Samples were homogenized in the extraction buffer and clarified by centrifugation. Supernatant was deproteinized by filtration through a 10-kDa cutoff spin filter (Millipore SAS, Molsheim, France). The assay was then performed according to the manufacturer's instructions. RNA was extracted from pancreas, adipose tissue and liver using the RNeasy RNA Mini Kit (Qiagen, Courtaboeuf, France). Reverse transcription was performed from a 20 μL reaction mixture with 500 ng RNA using M-MLV reverse transcriptase kit (ThermoFisher, Villebon, France). Quantitative RT-PCR was performed using sequence specific primers and the MESA green kit for SYBR green assays (Eurogentec, Angers, France). We used 18S and/or cyclophilin house keeping genes to normalize relative quantification of mRNA levels using the Livak and […] methods ([…], 2001).

[3] = biological target: dual specificity tyrosine phosphorylation regulated kinase DYRK1A (Homo sapiens, UniProt Q13627); assay: In vitro interaction analysis (DiscoverX) by determination of the EC50
[4] = CHD-fed mice, not statistically significant

**Q.** Which “islet size (immunohistochemistry)” value ([1]; CHD fed mice) does the source give for `Cc1ccc(O)cc1` [4-cresol] here?
**A.** 153.60±14.18

**Q.** And the “number of proliferative nuclei (KI67) in pancreas” value ([1]; CHD-fed mice)?
**A.** significantly increased

**Q.** What about the “reduction in liver fat content (Oil-Red-O staining)” value ([1]; HFD fed mice, P=0.009, to the level of saline-treated CHD-fed controls) of the same molecule?
**A.** 40.7%

**Q.** What about the “islet size (immunohistochemistry)” value ([1]; HFD fed mice) of the same molecule?
**A.** 170.00±12.56

**Q.** What about the “number of proliferative nuclei (KI67) in pancreas” value ([1]; HFD-fed mice) of the same molecule?
**A.** remained elevated

**Q.** And the “CD31 positive cells (pancreas vascularization)” value ([1]; both groups fed CHD or HFD)?
**A.** further significant increase

**Q.** What about the “liver fat content (Oil-Red-O staining)” value ([1]; mice fed CHD) of the same molecule?
**A.** reduced

**Q.** And the islet density ([1]; mice fed CHD or HFD, significant only in CHD-fed mice)?
**A.** strong increase

**Q.** What about the insulin positive area ([1]; mice fed CHD, statistically significant) of the same molecule?
**A.** 185.40±22.95

**Q.** What about the insulin positive area ([1]; mice fed HFD, not statistically significant) of the same molecule?
**A.** 171.90±21.62

**Q.** And the “Ucp1 expression in adipose tissue” value ([2]; CHD fed mice)?
**A.** markedly downregulated

**Q.** What about the “expression of Sirt1, Cav2, Hsl and Pnpla2 (Atg1) in adipose tissue” value ([2]; CHD fed mice) of the same molecule?
**A.** significantly stimulated

**Q.** What about the “Ucp1 expression in adipose tissue” value ([2]; HFD-fed mice, vs HFD saline and CHD 4-cresol) of the same molecule?
**A.** significantly downregulated

**Q.** And the “expression of Hsl and Pnpla2 in adipose tissue” value ([2]; HFD-fed mice, vs saline treated fat fed mice)?
**A.** significantly upregulated

**Q.** And the “expression of Ins1 and Hnf1α in pancreas” value (pancreas gene expression; [4])?
**A.** Enhanced expression

**Q.** What about the “expression of Ucp2 in pancreas” value (pancreas gene expression; [4]) of the same molecule?
**A.** reduced expression

**Q.** What about the “transcription of genes encoding amylase, Vegf, Bdnf, IL10 and Sirt1 in pancreas” value (pancreas gene expression; CHD-fed mice, vs saline-treated CHD-fed mice) of the same molecule?
**A.** increased transcription

**Q.** And the “IL10 transcript level in pancreas” value (pancreas gene expression; HFD-fed mice)?
**A.** remained elevated

**Q.** What about the “expression of Bdnf, Hnf1α, Pdx1 and Vegf in pancreas” value (pancreas gene expression; HFD-fed mice, differences not statistically significant) of the same molecule?
**A.** strongly overexpressed

**Q.** What about the “pancreatic expression of ERα” value (pancreas gene expression; fat fed mice in vivo) of the same molecule?
**A.** does not regulate significantly

**Q.** What about the “expression of Ucp2, IL6 and Tnf in pancreas” value (pancreas gene expression; mice fed HFD, vs HFD saline) of the same molecule?
**A.** significantly reduced expression

**Q.** What about the “expression of genes encoding Sirt1 and Ins1 in pancreas” value (pancreas gene expression; mice fed HFD, vs HFD saline) of the same molecule?
**A.** significant overexpression

**Q.** What about the DYRK1A pancreatic transcription (pancreas gene expression; mice fed control or HFD, chronic treatment) of the same molecule?
**A.** significant downregulation

**Q.** What about the “binding to DYRK1A” value [3] of the same molecule?
**A.** does bind
